Reference: patent publication US8846951B2 (AbbVie Inc., priority 2009, dated 2014)
Like-named read-outs stand apart in the source and are kept apart here.

What was measured:
5HT2C receptors = molecular target: T1, 5HT2C receptors (Homo sapiens, UniProt P28335); assay: Human 5-HT2C functional high throughput screening assay in CHO-K1 cells (calcium flux); assay type: cell-based; set-up: expressed in transfected cells; host or cells: CHO-K1 cells; settings: for Emax: CHO-K1, 5-HT2C, maximum functional response as percentage relative to the effect of serotonin; for EC50: CHO-K1 cells, calcium flux
T1 sequence (P28335 33-458): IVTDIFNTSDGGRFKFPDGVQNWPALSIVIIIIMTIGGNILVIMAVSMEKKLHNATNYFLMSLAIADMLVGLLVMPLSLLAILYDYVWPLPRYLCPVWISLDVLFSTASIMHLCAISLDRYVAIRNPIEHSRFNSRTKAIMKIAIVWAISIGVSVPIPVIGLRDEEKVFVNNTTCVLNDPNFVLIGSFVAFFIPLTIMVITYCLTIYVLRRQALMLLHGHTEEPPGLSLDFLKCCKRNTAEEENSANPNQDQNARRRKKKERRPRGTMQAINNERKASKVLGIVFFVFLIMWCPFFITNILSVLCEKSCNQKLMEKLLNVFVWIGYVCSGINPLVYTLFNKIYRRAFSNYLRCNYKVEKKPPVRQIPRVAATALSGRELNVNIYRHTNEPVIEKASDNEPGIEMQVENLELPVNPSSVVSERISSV
Summary of the method: (§1)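 Frozen CHO-K1 cells overexpressing the receptor were plated, serum-starved overnight, then loaded with Ca4 dye plus 2.5 mM probenecid for 60 min at room temperature. FLIPR fluorescence (ex 480/em 530 nm, 25 °C) after compound addition was normalized to serotonin; EC50 and Emax came from 4-parameter logistic fits.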

5HT2B receptors = molecular target: T2, 5HT2B receptors (Homo sapiens, UniProt P41595); assay: Human 5-HT2B functional high throughput screening assay in CHO-K1 cells (calcium flux); assay type: cell-based; settings: for EC50: CHO-K1 cells, calcium flux
T2 construct: expressed in transfected cells; host or cells: CHO-K1 cells
Summary of the method: as §1

[1] = 5-HT2C agonist activity, read-out: EC50
[2] = 5-HT2B agonist activity, read-out: EC50
[3] = 5-HT2B, maximum functional response as percentage relative to the effect of serotonin
[4] = CHO-K1, 5-HT2B, maximum functional response as percentage relative to the effect of serotonin, read-out: Emax

T2 sequence (P41595 whole entry): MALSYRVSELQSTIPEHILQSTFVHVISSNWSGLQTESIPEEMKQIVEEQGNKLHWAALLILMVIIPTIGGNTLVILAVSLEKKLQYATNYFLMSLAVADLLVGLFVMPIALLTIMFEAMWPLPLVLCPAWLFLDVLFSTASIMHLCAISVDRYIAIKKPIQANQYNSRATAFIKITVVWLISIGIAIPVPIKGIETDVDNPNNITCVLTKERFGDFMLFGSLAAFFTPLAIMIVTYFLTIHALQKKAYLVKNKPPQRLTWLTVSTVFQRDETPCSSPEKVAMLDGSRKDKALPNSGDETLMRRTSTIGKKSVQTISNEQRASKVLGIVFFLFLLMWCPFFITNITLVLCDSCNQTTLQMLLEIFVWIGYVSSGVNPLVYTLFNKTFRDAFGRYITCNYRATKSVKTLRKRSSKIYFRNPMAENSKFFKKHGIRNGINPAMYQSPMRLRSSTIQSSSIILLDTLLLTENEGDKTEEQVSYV

`c1ccc2c(c1)OCC[C@H]1CNC[C@H]21` [Example 270, (3aR,10bS)-2,3,3a,4,5,10b-Hexahydro-1H-[1]benzoxepino[4,5-c]pyrrole] was tested, and the Emax (5HT2C receptors) was over 120%, the EC50 (5HT2C receptors; EC50, 5-HT2C agonist activity) was 0.01 µM and the Emax (5HT2B receptors; CHO-K1) was 50%. The EC50 (5HT2B receptors; EC50, 5-HT2B agonist activity) was 0.2 µM.

`CC(=O)c1cccc(-c2ccc3c(c2)C(=O)N(C)C[C@@H]2CNC[C@@H]32)c1` (relative stereo) [Example 187, Trans-8-(3-acetylphenyl)-5-methyl-1,2,3,3a,4,5-hexahydrobenzo[e]pyrrolo[3,4-c]azepin-6(10bH)-one] gave an EC50 (5HT2C receptors; [1]) of 0.003 µM, an Emax (5HT2C receptors; read-out: Emax) of over 120% and an EC50 (5HT2B receptors; [2]) of over 10 µM. The Emax (5HT2B receptors; [3]) was “inactive”.

`O=C1NC[C@H]2CN(Cc3ccccc3)C[C@@H]2c2c(F)cc(F)cc21` [Example 105, (3aS,10bS)-2-Benzyl-8,10-difluoro-1,2,3,3a,4,5-hexahydrobenzo[c]pyrrolo[3,4-e]azepin-6(10bH)-one] was tested, and the Emax (5HT2C receptors) was over 120%, the EC50 (5HT2C receptors; EC50, 5-HT2C agonist activity) was 0.02 µM and the Emax (5HT2B receptors; [3]) was “inactive”. It also gave an EC50 (5HT2B receptors; EC50, 5-HT2B agonist activity) of over 10 µM.

`O=S(=O)(c1ccccc1C(F)(F)F)N1Cc2cccnc2[C@@H]2CNC[C@H]2C1` (relative stereo) [Example 365, Trans-6-{[2-(trifluoromethyl)phenyl]sulfonyl}-5,6,7,7a,8,9,10,10a-octahydropyrido[3,2-c]pyrrolo[3,4-e]azepine] showed an EC50 (5HT2C receptors; [1]) of 0.5 µM, an Emax (5HT2C receptors; read-out: Emax) of 80% and an EC50 (5HT2B receptors; [2]) of 0.8 µM. It also gave an Emax (5HT2B receptors; [4]) of 30%.

Work on `CC(=O)c1cccc(-c2ccc3c(c2)C(=O)NC[C@@H]2CNC[C@@H]32)c1.Cl` (relative stereo) [Example 236, Trans-8-(3-acetylphenyl)-1,2,3,3a,4,5-hexahydrobenzo[c]pyrrolo[3,4-e]azepin-6(10bH)-one hydrochloride] yielded an EC50 (5HT2C receptors; [1]) of 0.0003 µM, an Emax (5HT2C receptors) of over 120% and an EC50 (5HT2B receptors; [2]) of over 10 µM. The Emax (5HT2B receptors; [3]) was “inactive”.

`O=S(=O)(c1ccccc1Cl)N1Cc2cccnc2[C@@H]2CNC[C@H]2C1` (relative stereo) [Example 362, Trans-6-[(2-chlorophenyl)sulfonyl]-5,6,7,7a,8,9,10,10a-octahydropyrido[3,2-c]pyrrolo[3,4-e]azepine] was tested, and the Emax (5HT2C receptors) was 80%, the EC50 (5HT2C receptors; EC50, 5-HT2C agonist activity) was 0.1 µM and the Emax (5HT2B receptors; CHO-K1) was 75%. The EC50 (5HT2B receptors; EC50, 5-HT2B agonist activity) was 0.3 µM.

In the case of `COc1ccc(-c2ccc3c(c2)C(=O)NC[C@H]2CN(C)C[C@H]32)cn1` [Example 318, (3aS,10bS)-8-(6-Methoxypyridin-3-yl)-2-methyl-2,3,3a,4,5,10b-hexahydropyrrolo[3,4-d][2]benzazepin-6(1H)-one], the Emax (5HT2C receptors) is reported as 90%, the EC50 (5HT2C receptors; EC50, 5-HT2C agonist activity) is reported as 0.01 µM and the Emax (5HT2B receptors; [3]) is reported as “inactive”. For the same molecule, the EC50 (5HT2B receptors; EC50, 5-HT2B agonist activity) was over 10 µM.

Work on `COc1ccc(F)c(-c2ccc3c(c2)C(=O)NC[C@@H]2CN(C)C[C@@H]32)c1` (relative stereo) [Example 323, Trans-8-(2-fluoro-5-methoxyphenyl)-2-methyl-2,3,3a,4,5,10b-hexahydropyrrolo[3,4-d][2]benzazepin-6(1H)-one] yielded an EC50 (5HT2C receptors; [1]) of 0.009 µM, an Emax (5HT2C receptors; read-out: Emax) of 90% and an EC50 (5HT2B receptors; [2]) of over 10 µM. For the same molecule, the Emax (5HT2B receptors; [3]) was “inactive”.

Molecule `Oc1cccc2c1[C@H]1CNC[C@@H]1CCO2` (relative stereo) [Example 374, Trans-2,3,3a,4,5,10b-hexahydro-1H-[1]benzoxepino[4,5-c]pyrrol-10-ol] has an Emax (5HT2C receptors) of 90%, an EC50 (5HT2C receptors; EC50, 5-HT2C agonist activity) of 0.08 µM and an Emax (5HT2B receptors; CHO-K1) of 30%. The EC50 (5HT2B receptors; EC50, 5-HT2B agonist activity) was 0.7 µM.

In the case of `COc1ccc2c(c1)[C@H]1CNC[C@@H]1CC=C2` (relative stereo) [Example 266, Trans-9-methoxy-1,2,3,3a,4,10b-hexahydrobenzo[3,4]cyclohepta[1,2-c]pyrrole], the Emax (5HT2C receptors) is reported as over 120%, the EC50 (5HT2C receptors; EC50, 5-HT2C agonist activity) is reported as 0.01 µM and the Emax (5HT2B receptors; CHO-K1) is reported as 25%. For the same molecule, the EC50 (5HT2B receptors; EC50, 5-HT2B agonist activity) was 0.4 µM.

Molecule `CC(C)c1cccc(-c2ccc3c(c2)C(=O)NC[C@@H]2CNC[C@@H]32)c1` (relative stereo) [Example 378, Trans-8-(3-isopropylphenyl)-2,3,3a,4,5,10b-hexahydropyrrolo[3,4-d][2]benzazepin-6(1H)-one] has an EC50 (5HT2C receptors; [1]) of 0.0004 µM, an Emax (5HT2C receptors; read-out: Emax) of 105% and an EC50 (5HT2B receptors; [2]) of over 10 µM. The Emax (5HT2B receptors; [3]) was “inactive”.

In the case of `Fc1ccc(-c2cccc3c2OCC[C@H]2CNC[C@H]32)cc1` (relative stereo) [Example 399, Trans-7-(4-fluorophenyl)-2,3,3a,4,5,10b-hexahydro-1H-[1]benzoxepino[4,5-c]pyrrole], the EC50 (5HT2C receptors; [1]) is reported as 0.09 µM, the Emax (5HT2C receptors; read-out: Emax) is reported as 90% and the EC50 (5HT2B receptors; [2]) is reported as over 10 µM. For the same molecule, the Emax (5HT2B receptors; [3]) was “inactive”.

Molecule `Fc1ccc2c(c1)OCC[C@H]1CNC[C@H]21` (relative stereo) [Example 109, Trans-8-fluoro-2,3,3a,4,5,10b-hexahydro-1H-[1]benzoxepino[4,5-c]pyrrole] has an Emax (5HT2C receptors) of over 120%, an EC50 (5HT2C receptors; EC50, 5-HT2C agonist activity) of 0.04 µM and an Emax (5HT2B receptors; CHO-K1) of 55%. The EC50 (5HT2B receptors; EC50, 5-HT2B agonist activity) was 0.3 µM.

In the case of `Cc1cc(C)c(S(=O)(=O)N2Cc3cccnc3[C@@H]3CNC[C@H]3C2)c(C)c1` (relative stereo) [Example 363, Trans-6-(mesitylsulfonyl)-5,6,7,7a,8,9,10,10a-octahydropyrido[3,2-c]pyrrolo[3,4-e]azepine], the EC50 (5HT2C receptors; [1]) is reported as 0.2 µM, the Emax (5HT2C receptors; read-out: Emax) is reported as 65% and the EC50 (5HT2B receptors; [2]) is reported as 1 µM. It also gave an Emax (5HT2B receptors; [4]) of 15%.

`CN1C[C@H]2CNC(=O)c3cc(-c4ccc(F)cc4)ccc3[C@@H]2C1` (relative stereo) [Example 75, Trans-8-(4-fluorophenyl)-2-methyl-1,2,3,3a,4,5-hexahydrobenzo[e]pyrrolo[3,4-c]azepin-6(10bH)-one] was tested, and the Emax (5HT2C receptors; read-out: Emax) was over 120%, the EC50 (5HT2B receptors; [2]) was over 10 µM and the Emax (5HT2B receptors; [3]) was “inactive”.

`CN1C[C@H]2CCN(C)c3ccc(Cl)cc3[C@@H]2C1` (relative stereo) [Example 395, Trans-9-chloro-2,6-dimethyl-1,2,3,3a,4,5,6,10b-octahydropyrrolo[3,4-d][1]benzazepine] gave an Emax (5HT2C receptors) of 50%, an EC50 (5HT2C receptors; EC50, 5-HT2C agonist activity) of 0.5 µM and an Emax (5HT2B receptors; CHO-K1) of 65%. The EC50 (5HT2B receptors; EC50, 5-HT2B agonist activity) was 0.08 µM.

For `O=C1NC[C@@H]2CNC[C@H]2c2ccc(-c3ccc(F)cc3)cc21` (relative stereo) [Example 219, Trans-8-(4-fluorophenyl)-1,2,3,3a,4,5-hexahydrobenzo[e]pyrrolo[3,4-c]azepin-6(10bH)-one], the Emax (5HT2C receptors; read-out: Emax) was over 120%, the EC50 (5HT2B receptors; [2]) was over 10 µM and the Emax (5HT2B receptors; [3]) was “inactive”.

Work on `CC(C)CC(O)c1cccc(-c2ccc3c(c2)C(=O)NC[C@H]2CN(C)C[C@H]32)c1` (stereo partly drawn) [Example 312, (3aS,10bS)-8-[3-(1-Hydroxy-3-methylbutyl)phenyl]-2-methyl-2,3,3a,4,5,10b-hexahydropyrrolo[3,4-d][2]benzazepin-6(1H)-one] yielded an EC50 (5HT2C receptors; [1]) of 0.002 µM, an Emax (5HT2C receptors; read-out: Emax) of 90% and an EC50 (5HT2B receptors; [2]) of over 10 µM. For the same molecule, the Emax (5HT2B receptors; [3]) was “inactive”.

`COc1ccc(-c2ccc3c(c2)C(=O)NC[C@H]2CN(C)C[C@H]32)cc1Cl` [Example 319, (3aS,10bS)-8-(3-Chloro-4-methoxyphenyl)-2-methyl-2,3,3a,4,5,10b-hexahydropyrrolo[3,4-d][2]benzazepin-6(1H)-one] gave an EC50 (5HT2C receptors; [1]) of 0.006 µM, an Emax (5HT2C receptors; read-out: Emax) of 90% and an EC50 (5HT2B receptors; [2]) of over 10 µM. The Emax (5HT2B receptors; [3]) was “inactive”.

With `CC(C)COc1cccc(-c2ccc3c(c2)C(=O)NC[C@@H]2CN(C)C[C@@H]32)c1` (relative stereo) [Example 134, Trans-8-(3-isobutoxyphenyl)-2-methyl-1,2,3,3a,4,5-hexahydrobenzo[e]pyrrolo[3,4-c]azepin-6(10bH)-one] the EC50 (5HT2C receptors; [1]) was 0.06 µM, the Emax (5HT2C receptors; read-out: Emax) was over 120% and the EC50 (5HT2B receptors; [2]) was over 10 µM. For the same molecule, the Emax (5HT2B receptors; [3]) was “inactive”.

Molecule `COc1ccccc1-c1ccc2c(c1)C(=O)NC[C@H]1CN(C)C[C@H]21` [Example 275, (3aS,10bS)-8-(2-Methoxyphenyl)-2-methyl-1,2,3,3a,4,5-hexahydrobenzo[e]pyrrolo[3,4-c]azepin-6(10bH)-one] has an EC50 (5HT2C receptors; [1]) of 0.02 µM, an Emax (5HT2C receptors; read-out: Emax) of over 120% and an EC50 (5HT2B receptors; [2]) of over 10 µM. For the same molecule, the Emax (5HT2B receptors; [3]) was “inactive”.

`COc1cccc(-c2ccc3c(c2)C(=O)NC[C@@H]2CN(C)C[C@@H]32)c1` [Example 161, (3aR,10bR)-8-(3-Methoxyphenyl)-2-methyl-1,2,3,3a,4,5-hexahydrobenzo[e]pyrrolo[3,4-c]azepin-6(10bH)-one] was tested, and the Emax (5HT2C receptors; read-out: Emax) was 110%, the EC50 (5HT2B receptors; [2]) was over 10 µM and the Emax (5HT2B receptors; [3]) was “inactive”.

`CN1C[C@H]2CNC(=O)c3cc(-c4ccc5c(c4)C(=O)CC5)ccc3[C@@H]2C1` (relative stereo) [Example 251, Trans-2-methyl-8-(3-oxo-2,3-dihydro-1H-inden-5-yl)-1,2,3,3a,4,5-hexahydrobenzo[c]pyrrolo[3,4-e]azepin-6(10bH)-one] was tested, and the EC50 (5HT2C receptors; [1]) was 0.4 µM, the Emax (5HT2C receptors; read-out: Emax) was over 120% and the EC50 (5HT2B receptors; [2]) was over 10 µM. The Emax (5HT2B receptors; [3]) was “inactive”.

With `COc1cccc2c1[C@H]1CN(C)C[C@@H]1CCO2` (relative stereo) [Example 273, Trans-10-methoxy-2-methyl-2,3,3a,4,5,10b-hexahydro-1H-[1]benzoxepino[4,5-c]pyrrole] the Emax (5HT2C receptors) was over 120%, the EC50 (5HT2C receptors; EC50, 5-HT2C agonist activity) was 0.01 µM and the Emax (5HT2B receptors; CHO-K1) was 35%. For the same molecule, the EC50 (5HT2B receptors; EC50, 5-HT2B agonist activity) was 0.1 µM.
